According to US20260262643A1, “HERBICIDAL BENZOXAZINES” (FMC CORPORATION, priority 2022, published 2026):

Assays:
barnyardgrass [1] = test: Test C preemergence; format: in vivo, Echinochloa crusgalli; conditions: for Barnyardgrass plant response rating: preemergence, 0 to 100 scale (0 no effect, 100 complete control)
Summary of the method: (§1)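 Pre: seeds in loam/sand, directed soil spray. Post: 1–2 leaf plants, 2–10 cm. Cmpd in non-phytotoxic solvent + surfactant. Greenhouse 10 d; visual rating vs untreated, 0 = none, 100 = complete control.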

blackgrass [2] = test: Test C preemergence; format: in vivo, Alopecurus myosuroides; conditions: for Blackgrass plant response rating: preemergence, 0 to 100 scale (0 no effect, 100 complete control)
Summary of the method: as §1

corn [3] = test: Test C preemergence; format: in vivo, Zea mays; conditions: for Corn plant response rating: preemergence, 0 to 100 scale (0 no effect, 100 complete control)
Summary of the method: as §1

green foxtail [4] = test: Test C preemergence; format: in vivo, Setaria viridis; conditions: for Foxtail, Green plant response rating: preemergence, 0 to 100 scale (0 no effect, 100 complete control)
Summary of the method: as §1

kochia [5] = test: Test C preemergence; format: in vivo, Bassia scoparia; conditions: for Kochia plant response rating: preemergence, 0 to 100 scale (0 no effect, 100 complete control)
Summary of the method: as §1

pigweed, palmer [6] = test: Test C preemergence; format: in vivo, Amaranthus palmeri; conditions: for Pigweed, Palmer plant response rating: preemergence, 0 to 100 scale (0 no effect, 100 complete control)
Summary of the method: as §1

ragweed [7] = test: Test C preemergence; format: in vivo, Ambrosia artemisiifolia; conditions: for Ragweed plant response rating: preemergence, 0 to 100 scale (0 no effect, 100 complete control)
Summary of the method: as §1

ryegrass, Italian [8] = test: Test C preemergence; format: in vivo, Lolium multiflorum; conditions: for Ryegrass, Italian plant response rating: preemergence, 0 to 100 scale (0 no effect, 100 complete control)
Summary of the method: as §1

soybean [9] = test: Test C preemergence; format: in vivo, Glycine max; conditions: for Soybean plant response rating: preemergence, 0 to 100 scale (0 no effect, 100 complete control)
Summary of the method: as §1

wheat [10] = test: Test C preemergence; format: in vivo, Triticum aestivum; conditions: for Wheat plant response rating: preemergence, 0 to 100 scale (0 no effect, 100 complete control)
Summary of the method: as §1

barnyardgrass [11] = test: Test C postemergence; format: in vivo, Echinochloa crusgalli; conditions: 10 days
Summary of the method: as §1

blackgrass [12] = test: Test C postemergence; format: in vivo, Alopecurus myosuroides; conditions: 10 days
Summary of the method: as §1

corn [13] = test: Test C postemergence; format: in vivo, Zea mays; conditions: 10 days
Summary of the method: as §1

green foxtail [14] = test: Test C postemergence; format: in vivo, Setaria viridis; conditions: 10 days
Summary of the method: as §1

kochia [15] = test: Test C postemergence; format: in vivo, Bassia scoparia; conditions: 10 days
Summary of the method: as §1

oat, wild = test: Test C postemergence; format: in vivo, Avena fatua; conditions: 10 days
Summary of the method: as §1

pigweed, palmer [16] = test: Test C postemergence; format: in vivo, Amaranthus palmeri; conditions: 10 days
Summary of the method: as §1

ragweed [17] = test: Test C postemergence; format: in vivo, Ambrosia artemisiifolia; conditions: 10 days
Summary of the method: as §1

ryegrass, Italian [18] = test: Test C postemergence; format: in vivo, Lolium multiflorum; conditions: 10 days
Summary of the method: as §1

soybean [19] = test: Test C postemergence; format: in vivo, Glycine max; conditions: 10 days
Summary of the method: as §1

wheat [20] = test: Test C postemergence; format: in vivo, Triticum aestivum; conditions: 10 days
Summary of the method: as §1

galium = test: Test C postemergence; format: in vivo, Galium aparine; conditions: 10 days
Summary of the method: as §1

horseweed = test: Test C postemergence; format: in vivo, Erigeron canadensis; conditions: postemergence, 10 days
Summary of the method: as §1

barnyardgrass [21] = test: Test D flooded paddy test; format: in vivo, Echinochloa crus-galli; conditions: 250 g ai/ha, applied to paddy water, visual rating after 13 to 14 days, scale 0 to 100 (0 no effect, 100 complete control)
Summary of the method: (§2)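 2-leaf plants; flood 3 cm above soil; compound dosed into paddy water; greenhouse 13–14 d; visual rating vs controls, 0–100 (100 = complete control); dash = not tested.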

ducksalad = test: Test D flooded paddy test; format: in vivo, Heteranthera limosa; conditions: 250 g ai/ha, applied to paddy water, visual rating after 13 to 14 days, scale 0 to 100 (0 no effect, 100 complete control)
Summary of the method: as §2

rice = test: Test D flooded paddy test; format: in vivo, Oryza sativa; conditions: 250 g ai/ha, applied to paddy water, visual rating after 13 to 14 days, scale 0 to 100 (0 no effect, 100 complete control)
Summary of the method: as §2

sedge, umbrella = test: Test D flooded paddy test; format: in vivo, Cyperus difformis; conditions: 250 g ai/ha, applied to paddy water, visual rating after 13 to 14 days, scale 0 to 100 (0 no effect, 100 complete control)
Summary of the method: as §2

[22] = 125 g ai/ha, postemergence, 0 to 100 scale, 0 no effect, 100 complete control
[23] = 500 g ai/ha, postemergence, 0 to 100 scale (0 no effect, 100 complete control)
[24] = 500 g ai/ha, 0 to 100 scale (0 no effect, 100 complete control)
[25] = Preemergence, 125 g ai/ha, 0 to 100 scale, 0 no effect, 100 complete control
[26] = Postemergence, 125 g ai/ha, 0 to 100 scale (0 no effect, 100 complete control)

In the case of CCOCc1ncn(-c2ccc(C)c(C(=O)N3C[C@H](C)Oc4c(Cl)cccc43)c2)n1 [Compound 294], the “Barnyardgrass plant response rating” value (barnyardgrass [1]; 500 g ai/ha) is reported as 100, the “Barnyardgrass plant response rating” value (barnyardgrass [1]; Test C, 125 g ai/ha) is reported as 40 and the “Blackgrass plant response rating” value (blackgrass [2]; 500 g ai/ha) is reported as 90. The “Blackgrass plant response rating” value (blackgrass [2]; Test C, 125 g ai/ha) was 70, the “Corn plant response rating” value (corn [3]; 500 g ai/ha) was 50 and the “Corn plant response rating” value (corn [3]; Test C, 125 g ai/ha) was 50. For the same compound, the “Foxtail, Green plant response rating” value (green foxtail [4]; 500 g ai/ha) was 100, the “Foxtail, Green plant response rating” value (green foxtail [4]; Test C, 125 g ai/ha) was 90 and the “Kochia plant response rating” value (kochia [5]; 500 g ai/ha) was 80. The “Kochia plant response rating” value (kochia [5]; Test C, 125 g ai/ha) was 20, the “Pigweed, Palmer plant response rating” value (pigweed, palmer [6]; 500 g ai/ha) was 90 and the “Pigweed, Palmer plant response rating” value (pigweed, palmer [6]; Test C, 125 g ai/ha) was 60. The “Ragweed plant response rating” value (ragweed [7]; 500 g ai/ha) was 0, the “Ragweed plant response rating” value (ragweed [7]; Test C, 125 g ai/ha) was 0 and the “Ryegrass, Italian plant response rating” value (ryegrass, Italian [8]; 500 g ai/ha) was 100. For the same compound, the “Ryegrass, Italian plant response rating” value (ryegrass, Italian [8]; Test C, 125 g ai/ha) was 90, the “Soybean plant response rating” value (soybean [9]; 500 g ai/ha) was 90 and the “Soybean plant response rating” value (soybean [9]; Test C, 125 g ai/ha) was 20. For the same compound, the “Wheat plant response rating” value (wheat [10]; 500 g ai/ha) was 20, the “Wheat plant response rating” value (wheat [10]; Test C, 125 g ai/ha) was 0 and the “Plant response rating, Barnyardgrass” value (barnyardgrass [11]; [22]) was 10. For the same compound, the “Plant response rating, Barnyardgrass” value (barnyardgrass [11]; [23]) was 50, the “Plant response rating, Blackgrass” value (blackgrass [12]; [22]) was 30 and the “Plant response rating, Blackgrass” value (blackgrass [12]; [23]) was 80. For the same compound, the “Plant response rating, Corn” value (corn [13]; [22]) was 30, the “Plant response rating, Corn” value (corn [13]; [23]) was 90 and the “Plant response rating, Foxtail, Green” value (green foxtail [14]; [22]) was 10. The “Plant response rating, Foxtail, Green” value (green foxtail [14]; [23]) was 70, the “Plant response rating, Kochia” value (kochia [15]; [22]) was 60 and the “Plant response rating, Kochia” value (kochia [15]; [23]) was 60. For the same compound, the “Plant response rating, Oat, Wild” value (oat, wild; [22]) was 10, the “Plant response rating, Oat, Wild” value (oat, wild; [23]) was 10 and the “Plant response rating, Pigweed, Palmer” value (pigweed, palmer [16]; [22]) was 40. For the same compound, the “Plant response rating, Pigweed, Palmer” value (pigweed, palmer [16]; [23]) was 60, the “Plant response rating, Ragweed” value (ragweed [17]; [22]) was 50 and the “Plant response rating, Ragweed” value (ragweed [17]; [23]) was 70. The “Plant response rating, Ryegrass, Italian” value (ryegrass, Italian [18]; [22]) was 40, the “Plant response rating, Ryegrass, Italian” value (ryegrass, Italian [18]; [23]) was 90 and the “Plant response rating, Soybean” value (soybean [19]; [22]) was 90. The “Plant response rating, Soybean” value (soybean [19]; [23]) was 100, the “Plant response rating, Wheat” value (wheat [20]; [22]) was 10 and the “Plant response rating, Wheat” value (wheat [20]; [23]) was 40. The “Plant response rating, Galium” value (galium; [22]) was 100, the “Plant response rating, Galium” value (galium; [23]) was 90 and the “Plant response rating, Horseweed” value (horseweed; 125 g ai/ha, 0 to 100 scale, 0 no effect, 100 complete control) was 30. The “Plant response rating, Horseweed” value (horseweed; [24]) was 70, the “Plant response rating, Barnyardgrass (Flood)” value (barnyardgrass [21]) was 0 and the “Plant response rating, Ducksalad (Flood)” value (ducksalad) was 0. For the same compound, the “Plant response rating, Rice (Flood)” value (rice) was 0 and the “Plant response rating, Sedge, Umbrella (Flood)” value (sedge, umbrella) was 0.

With CC(=O)c1ncn(-c2ccc(C)c(C(=O)N3C[C@H](C)Oc4c(Cl)cccc43)c2)n1 [Compound 360] the “Barnyardgrass plant response rating” value (barnyardgrass [1]; 500 g ai/ha) was 100, the “Plant response rating, Barnyardgrass” value (barnyardgrass [1]; [25]) was 100 and the “Blackgrass plant response rating” value (blackgrass [2]; 500 g ai/ha) was 100. For the same compound, the “Plant response rating, Blackgrass” value (blackgrass [2]; [25]) was 80, the “Corn plant response rating” value (corn [3]; 500 g ai/ha) was 70 and the “Plant response rating, Corn” value (corn [3]; [25]) was 60. For the same compound, the “Foxtail, Green plant response rating” value (green foxtail [4]; 500 g ai/ha) was 100, the “Plant response rating, Foxtail, Green” value (green foxtail [4]; [25]) was 100 and the “Kochia plant response rating” value (kochia [5]; 500 g ai/ha) was 80. For the same compound, the “Plant response rating, Kochia” value (kochia [5]; [25]) was 20, the “Pigweed, Palmer plant response rating” value (pigweed, palmer [6]; 500 g ai/ha) was 90 and the “Plant response rating, Pigweed, Palmer” value (pigweed, palmer [6]; [25]) was 30. For the same compound, the “Ragweed plant response rating” value (ragweed [7]; 500 g ai/ha) was 100, the “Plant response rating, Ragweed” value (ragweed [7]; [25]) was 80 and the “Ryegrass, Italian plant response rating” value (ryegrass, Italian [8]; 500 g ai/ha) was 90. The “Plant response rating, Ryegrass, Italian” value (ryegrass, Italian [8]; [25]) was 80, the “Soybean plant response rating” value (soybean [9]; 500 g ai/ha) was 100 and the “Plant response rating, Soybean” value (soybean [9]; [25]) was 80. The “Wheat plant response rating” value (wheat [10]; 500 g ai/ha) was 80, the “Plant response rating, Wheat” value (wheat [10]; [25]) was 40 and the “Plant response rating, Barnyardgrass” value (barnyardgrass [11]; [23]) was 100. For the same compound, the “Plant response rating, Barnyardgrass” value (barnyardgrass [11]; [26]) was 90, the “Plant response rating, Blackgrass” value (blackgrass [12]; [23]) was 90 and the “Plant response rating, Blackgrass” value (blackgrass [12]; [26]) was 80. For the same compound, the “Plant response rating, Corn” value (corn [13]; [23]) was 90, the “Plant response rating, Corn” value (corn [13]; [26]) was 90 and the “Plant response rating, Foxtail, Green” value (green foxtail [14]; [23]) was 90. The “Plant response rating, Foxtail, Green” value (green foxtail [14]; [26]) was 90, the “Plant response rating, Kochia” value (kochia [15]; [23]) was 70 and the “Plant response rating, Kochia” value (kochia [15]; [26]) was 20. For the same compound, the “Plant response rating, Oat, Wild” value (oat, wild; [23]) was 90, the “Plant response rating, Oat, Wild” value (oat, wild; [26]) was 30 and the “Plant response rating, Pigweed, Palmer” value (pigweed, palmer [16]; [23]) was 90. The “Plant response rating, Pigweed, Palmer” value (pigweed, palmer [16]; [26]) was 60, the “Plant response rating, Ragweed” value (ragweed [17]; [23]) was 80 and the “Plant response rating, Ragweed” value (ragweed [17]; [26]) was 50. For the same compound, the “Plant response rating, Ryegrass, Italian” value (ryegrass, Italian [18]; [23]) was 100, the “Plant response rating, Ryegrass, Italian” value (ryegrass, Italian [18]; [26]) was 70 and the “Plant response rating, Soybean” value (soybean [19]; [23]) was 100. For the same compound, the “Plant response rating, Soybean” value (soybean [19]; [26]) was 100, the “Plant response rating, Wheat” value (wheat [20]; [23]) was 50 and the “Plant response rating, Wheat” value (wheat [20]; [26]) was 30. The “Plant response rating, Galium” value (galium; [23]) was 100, the “Plant response rating, Galium” value (galium; [26]) was 100 and the “Plant response rating, Horseweed” value (horseweed; [24]) was 30. For the same compound, the “Plant response rating, Barnyardgrass (Flood)” value (barnyardgrass [21]) was 45, the “Plant response rating, Ducksalad (Flood)” value (ducksalad) was 100 and the “Plant response rating, Rice (Flood)” value (rice) was 15. For the same compound, the “Plant response rating, Sedge, Umbrella (Flood)” value (sedge, umbrella) was 90.
